The record followed here is patent US12516038B2, “Inhibitors of antigen presentation by HLA-DR” (Janssen Pharmaceutica NV, priority 2020, dated 2026).

Assay [1] concerns HLA-DR4 restricted mouse T cell hybridoma line (DR4.CII.36.8) with HLA-DRB1*04:01-expressing Boleth cells. Nature of the assay: HLA-DR4-restricted peptide-specific T cell-based assay (hybridoma assay). The following applies: Mus musculus, T-cell, 6 h, inhibition of IL-2 production, CII259-273 peptide presented by Boleth cells. The procedure, abridged:
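Boleth cells (HLA-DRB1*04:01 B cell line) pre-incubated with compound 1 h at 37° C. in DMEM/1% FCS, then DR4.CII.36.8 mouse T cell hybridoma (CII259-273-specific) added for 6 h with CII259-273 peptide. Supernatant mouse IL-2 by AlphaLISA; IC50 by 4-PL fit of 8-point duplicate titrations.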

The subject of assay [2] is human peripheral blood CD4+ helper T cells. Description: Pan-CD4+ T cell activation (off-target assay). Format: cell-based. The conditions noted are these: Homo sapiens, T-cell, 24 h, anti-CD3/anti-CD28 stimulation, IL-2 production by ELISA. The procedure, abridged:
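Human peripheral blood CD4+ T cells, with no APCs present, were stimulated with plate-bound anti-CD3 (1 μg/mL coating) plus soluble anti-CD28 (1 μg/mL) in the presence of compound or vehicle for 24 h. IL-2 in the supernatant was quantified by ELISA.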

The target of a further assay is HLA-DRB1*0401 (Homo sapiens (Human), UniProt P01903+P01911, A100K/A169T/DEL228-266/F76Y/I96L/K127E/L162R/M171V/N62H/P40V/Q125Y/R42H/S133A/S149N/S66Y/V115G/V209L/W38E). Description: HLA-DR4 HTRF assay. Format: binding. The conditions noted are these: inhibition of loading of Alexa Fluor 647-labeled Cit-CII peptide onto HLA-DR4 (CLIP cleaved). The procedure, abridged: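 HLA-DRB1*04:01 construct (α/β fused to human Fc, CLIP pre-cleaved by HRV3C overnight at 4° C) at 3 nM was preincubated 45 min with compound and 1 nM anti-Fc-Tb donor, then 40 nM Alexa647-Cit-CII1236-1249 peptide added. After 90 min at 37° C, the 665/620 nm HTRF ratio gave % inhibition; IC50 by nonlinear regression.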

pIC50: −log10 of the molar value. Some results are limits rather than exact numbers.

As to `CC[C@@H]1CC(=O)c2ccc(O[C@@H](c3ccncc3)c3ccc(C(N)=O)cc3)cc2O1` (single isomer, unassigned) [Example 40a, 4-((*R)—(((*R)-2-ethyl-4-oxochroman-7-yl)oxy)(pyridin-4-yl)methyl)benzamide], the pIC50 in assay [1] was 6.12; in assay [2], 4.82; on HLA-DRB1*0401, 5.82.

Turning to `NC(=O)c1ccc([C@@H](Oc2ccc3c(c2)OCCC3=O)c2ccncc2C(F)(F)F)cc1` (single isomer, unassigned) [Example 19a, (*R)-4-(((4-oxochroman-7-yl)oxy)(3-(trifluoromethyl)pyridin-4-yl)methyl)benzamide], the pIC50 in assay [1] is 5.44; in assay [2], 5.74; against HLA-DRB1*0401, 6.09.

As for `NC(=O)c1ccc([C@@H](Oc2ccc3c(c2)OCCC3=O)c2ccnc3ccccc23)cc1` (single isomer, unassigned) [Example 22a, (*R)-4-(((4-oxochroman-7-yl)oxy)(quinolin-4-yl)methyl)benzamide], the pIC50 in assay [1] is 5.72; in assay [2], 5.33; against HLA-DRB1*0401 it was 5.89.

Regarding `NC(=O)c1ccc([C@@H](Oc2cc3c(cc2F)C(=O)CCO3)c2ccncc2)cc1` (single isomer, unassigned) [Example 52a, (*R)-4-(((6-Fluoro-4-oxochroman-7-yl)oxy)(pyridin-4-yl)methyl)benzamide], the negative-log IC50 (pIC50) in assay [1] is 6.25; in assay [2], less than 4.82; against HLA-DRB1*0401, 6.64.

Regarding `CC[C@H]1CC(=O)c2ccc(O[C@@H](c3ccncc3)c3ccc(C(N)=O)cc3)cc2O1` (single isomer, unassigned) [Example 40b, 4-((*R)—(((*S)-2-ethyl-4-oxochroman-7-yl)oxy)(pyridin-4-yl)methyl)benzamide], the results for the pIC50 (in assay [1]; in assay [2]; on HLA-DRB1*0401) were 6.00, 4.82 and 5.89, respectively.

Regarding `COc1cc([C@H](Oc2ccc3c(c2)OCCC3=O)c2ccc(C(N)=O)cc2)ccn1` (single isomer, unassigned) [Example 24a, (*R)-4-((2-methoxypyridin-4-yl)((4-oxochroman-7-yl)oxy)methyl)benzamide], the pIC50 in assay [1] is 5.29; in assay [2], less than 4.82; against HLA-DRB1*0401, 5.85.

Turning to `Cc1c(O[C@@H](c2ccc(Cl)cc2)c2ccc(C(N)=O)cn2)ccc2c1OCCC2=O` (single isomer, unassigned) [Example 63b, (*S)-6-((4-chlorophenyl)((8-methyl-4-oxochroman-7-yl)oxy)methyl)nicotinamide], the values for the negative-log IC50 (pIC50) (in assay [1]; in assay [2]; on HLA-DRB1*0401) were 5.89, 5.33 and 5.82, respectively.

Regarding `Cc1c(O[C@H](c2ccncc2)c2cccc(CNC(N)=O)c2)ccc2c1OCCC2=O` (single isomer, unassigned) [Example 81b, (*S)-1-(3-(((8-methyl-4-oxochroman-7-yl)oxy)(pyridin-4-yl)methyl)benzyl)urea], the pIC50 in assay [1] is 5.89; in assay [2] it was less than 4.82; against HLA-DRB1*0401, 6.21.

In the case of `CCOc1cc(C(N)=O)ccc1[C@H](Oc1ccc2c(c1C)OCCC2=O)c1ccncc1` (single isomer, unassigned) [Example 83a, (*R)-3-ethoxy-4-(((8-methyl-4-oxochroman-7-yl)oxy)(pyridin-4-yl)methyl)benzamide], the values for the negative-log IC50 (pIC50) (in assay [1]; in assay [2]; at HLA-DRB1*0401) were 5.57, 6.00 and 6.02, respectively.

On to `N#Cc1ccc([C@H](Oc2ccc3c(c2)OCCC3=O)c2ccncc2)c2ccccc12` (single isomer, unassigned) [Example 37a, (*R)-4-(((4-oxochroman-7-yl)oxy)(pyridin-4-yl)methyl)-1-naphthonitrile], for which the negative logarithm of the IC50 (pIC50) was 5.03 in assay [1], 5.70 in assay [2] and 4.48 on HLA-DRB1*0401.

For `CC[C@H]1COc2cc(O[C@H](c3ccncc3)c3ccc(C(N)=O)cc3)ccc2C1=O` (single isomer, unassigned) [Example 45b, 4-((*S)—(((*S)-3-ethyl-4-oxochroman-7-yl)oxy)(pyridin-4-yl)methyl)benzamide], the figures for the negative-log IC50 (pIC50) (in assay [1]; in assay [2]; against HLA-DRB1*0401) were 5.00, less than 4.82 and 5.85, respectively.

For the compound `NC(=O)c1ccc([C@@H](Oc2ccc3c(c2)O[C@@H](c2ccccc2)CC3=O)c2ccncc2)cc1` (single isomer, unassigned) [Example 43a, 4-((*R)—(((*R)-4-oxo-2-phenylchroman-7-yl)oxy)(pyridin-4-yl)methyl)benzamide], the values for the negative-log IC50 (pIC50) (in assay [1]; in assay [2]; against HLA-DRB1*0401) were 6.13, 5.35 and 5.44, respectively.

Consider `NC(=O)c1ccc([C@@H](Oc2cc3c(cc2-c2ccccc2)C(=O)CCO3)c2ccncc2)cc1` (single isomer, unassigned) [Example 54a, (*R)-4-(((4-oxo-6-phenylchroman-7-yl)oxy)(pyridin-4-yl)methyl)benzamide], for which the results for the pIC50 (in assay [1]; in assay [2]; at HLA-DRB1*0401) were 7.11, 6.28 and 6.20, respectively.

In the case of `Cc1cc(C(N)=O)ccc1[C@H](Oc1ccc2c(c1)OCCC2=O)c1ccncc1` (single isomer, unassigned) [Example 36a, (*R)-3-methyl-4-(((4-oxochroman-7-yl)oxy)(pyridin-4-yl)methyl)benzamide], the negative-log IC50 (pIC50) was 5.32 in assay [1], 5.33 in assay [2] and 6.26 at HLA-DRB1*0401.

Take `Cc1c(O[C@H](c2ccncc2)c2ccc(C(N)=O)cc2OCc2ccccc2)ccc2c1OCCC2=O` (single isomer, unassigned) [Example 86a, (*R)-3-(benzyloxy)-4-(((8-methyl-4-oxochroman-7-yl)oxy)(pyridin-4-yl)methyl)benzamide]: the pIC50 in assay [1] is 7.14; in assay [2] it was 5.60; at HLA-DRB1*0401, 6.13.

`Cc1c(O[C@H](c2ccccc2)c2ccc(C(N)=O)cc2)ccc2c1OCCC2=O` (single isomer, unassigned) [Example 69a, (*R)-4-(((8-Methyl-4-oxochroman-7-yl)oxy)(phenyl)methyl)benzamide]: the negative-log IC50 (pIC50) was 5.66 in assay [1], 5.21 in assay [2] and 5.68 against HLA-DRB1*0401.

For `O=C1CCOc2cc(O[C@H](c3ccncc3)c3ccccc3F)ccc21` (single isomer, unassigned) [Example 1a, (*R)-7-((2-Fluorophenyl)(pyridin-4-yl)methoxy)chroman-4-one], the negative-log IC50 (pIC50) was 5.47 in assay [1], less than 4.82 in assay [2] and 6.00 against HLA-DRB1*0401.

`Cc1cc2c(c(C)c1O[C@H](c1ccncc1)c1ccc(C(N)=O)cc1)OCCC2=O` (single isomer, unassigned) [Example 89b, (*S)-4-(((6,8-dimethyl-4-oxochroman-7-yl)oxy)(pyridin-4-yl)methyl)benzamide]: the pIC50 was 5.92 in assay [1], 5.33 in assay [2] and 6.33 against HLA-DRB1*0401.

Regarding `COc1ccc(COc2cccc([C@H](Oc3ccc4c(c3)OCCC4=O)c3ccncc3)c2)cc1` (single isomer, unassigned) [Example 4a, (*R)-7-((3-((4-Methoxybenzyl)oxy)phenyl)(pyridin-4-yl)methoxy)chroman-4-one], the negative logarithm of the IC50 (pIC50) in assay [1] was 5.54; in assay [2], 5.11; at HLA-DRB1*0401 it was 5.16.

As to `NC(=O)c1ccc([C@H](Oc2ccc3c(c2)OCCC3=O)c2ccnc(N)c2)cc1` (single isomer, unassigned) [Example 28b, (*S)-4-((2-aminopyridin-4-yl)((4-oxochroman-7-yl)oxy)methyl)benzamide], the negative logarithm of the IC50 (pIC50) in assay [1] is 5.46; in assay [2], less than 4.82; at HLA-DRB1*0401, 5.77.

For the compound `Cc1c(O[C@H](c2ccc(C(N)=O)cc2)c2ccccc2C#N)ccc2c1OCCC2=O` (single isomer, unassigned) [Example 61a, (*R)-4-((2-cyanophenyl)((8-methyl-4-oxochroman-7-yl)oxy)methyl)benzamide], the pIC50 was 5.34 in assay [1], 5.57 in assay [2] and 6.00 at HLA-DRB1*0401.

As to `Cc1c(O[C@H](c2ccc(C(N)=O)cc2)c2cccc(C#N)c2)ccc2c1OCCC2=O` (single isomer, unassigned) [Example 60a, (*R)-4-((3-cyanophenyl)((8-methyl-4-oxochroman-7-yl)oxy)methyl)benzamide], the pIC50 is 6.13 in assay [1], 5.33 in assay [2] and 5.74 on HLA-DRB1*0401.

`NC(=O)c1ccc([C@H](Oc2cc3c(cc2-c2ccccc2)C(=O)CCO3)c2ccncc2)cc1` (single isomer, unassigned) [Example 54b, (*S)-4-(((4-oxo-6-phenylchroman-7-yl)oxy)(pyridin-4-yl)methyl)benzamide]: the negative logarithm of the IC50 (pIC50) was 5.37 in assay [1], 4.82 in assay [2] and 6.06 at HLA-DRB1*0401.

For the compound `N#Cc1c(O[C@@H](c2ccncc2)c2ccc(C(N)=O)cc2)ccc2c1OCCC2=O` (single isomer, unassigned) [Example 78a, (*R)-4-(((8-cyano-4-oxochroman-7-yl)oxy)(pyridin-4-yl)methyl)benzamide], the pIC50 in assay [1] is 5.64; in assay [2] it was 5.00; at HLA-DRB1*0401, 6.33.
